Test system: cellulose fungal decay
Test: Inground testing of cement-treated pulp sheets, subjective visual rating for deterioration (biodurability)
Design: species or system fungi
Conditions: for biological protection: summary statement in Example 2
Experimental: Samples for testing were prepared by obtaining unbleached mixed conifer kraft pulp sheets produced in an interior British Columbia mill. […] Solutions of various biocides were made up so that the desired ultimate concentration of active material would be obtained by spraying each sample portion of pulp sheet with about 1 g of the biocidal solution per gram of pulp. […] Subsequently the treated sheets were reslurried in water having a pH ˜12 obtained from a cement board manufacturing facility and refined to a Canadian Standard Freeness (CSF) level of 450 mL. All refining was done in a pilot scale Model 202 Claflin refiner (available from Bolton-Emerson, Inc., Lawrence, Mass.). The treated and refined pulp was dewatered by centrifuging to a consistency of about 30% and then pin fluffed to ensure uniformity.
Treatments included copper sulfate at concentrations of 0.1, 0.3, and 0.5% Cu w/w based on dry pulp; zinc sulfate at concentrations of 0.1%, 0.3%, and 0.6% Zn; 0.2% propiconazole emulsion; didecyldimethylammonium chloride (DDAC) 0.2%, 0.5%; and 1.0%, and 1.0% DDAB. Treated fibers were also made using 1.0% DDAC with 0.05%, 0.10%, and 0.2% Cu added as copper sulfate. All concentrations are on a weight/weight basis.
Samples of 30 g of the treated pulps were reslurried in water and formed into sheets in an 8×8 inch (203×203 mm) sheet. The sheets were pressed to remove excess moisture then air dried. Each sheet was then cut in half and dipped for 30 seconds in a slurry of one part Portland cement in three parts by weight water. The coated and impregnated sheets were removed and drained, allowed to cure for two days wet, and then air dried. Each 4×8 inch ([…] mm) cement treated sheet was then enclosed in a 20 mesh stainless steel screen and half buried in the ground at a test site at Hilo, Hi. Samples were then removed after three month, six month, nine month, and twelve month periods for examination. Exposed sheets were assigned a subjective rating for deterioration based on visual observation (3=sound and 0=complete deterioration). The exposed sheets were also examined microscopically to determine the presence of fungal mycelium and cell wall deterioration. […] 1

## CCCC1COC(Cn2cncn2)(c2ccc(Cl)cc2Cl)O1 (centres unmarked) [propiconazole]
At 0.2%
  decay protection: did not give effective decay protection
  biological protection: poor

## CCCCCCCCCC[N+](C)(C)CCCCCCCCCC.[Br-] [DDAB, didecyldimethylammonium bromide]
DDAB at 1% (lower concentrations not tested)
  below ground protection: effective below ground protection

## CCCCCCCCCC[N+](C)(C)CCCCCCCCCC.[Cl-] [DDAC, didecyldimethylammonium chloride]
DDAC at 0.5% or greater
  below ground protection: effective below ground protection

## O=S(=O)([O-])[O-].[Cu+2] [copper, copper sulfate]
After the one year underground tests
  reducing cellulose fungal decay: effective in reducing cellulose fungal decay
Copper at concentrations of 0.3% or greater
  below ground protection: effective below ground protection

## O=S(=O)([O-])[O-].[Zn+2] [Zinc compounds, zinc sulfate]
At any concentration tested
  decay protection: did not give effective decay protection
  biological protection: poor
